Test [1] has as its target T1, progesterone receptor (PR) (Homo sapiens, UniProt P06401).
T1 construct: Cells were co-transfected with expression plasmids for full-length hGR, PRβ and the relative reporter; expressed in transfected cells; host or cells: LNCaP
T1 sequence (P06401 1-933): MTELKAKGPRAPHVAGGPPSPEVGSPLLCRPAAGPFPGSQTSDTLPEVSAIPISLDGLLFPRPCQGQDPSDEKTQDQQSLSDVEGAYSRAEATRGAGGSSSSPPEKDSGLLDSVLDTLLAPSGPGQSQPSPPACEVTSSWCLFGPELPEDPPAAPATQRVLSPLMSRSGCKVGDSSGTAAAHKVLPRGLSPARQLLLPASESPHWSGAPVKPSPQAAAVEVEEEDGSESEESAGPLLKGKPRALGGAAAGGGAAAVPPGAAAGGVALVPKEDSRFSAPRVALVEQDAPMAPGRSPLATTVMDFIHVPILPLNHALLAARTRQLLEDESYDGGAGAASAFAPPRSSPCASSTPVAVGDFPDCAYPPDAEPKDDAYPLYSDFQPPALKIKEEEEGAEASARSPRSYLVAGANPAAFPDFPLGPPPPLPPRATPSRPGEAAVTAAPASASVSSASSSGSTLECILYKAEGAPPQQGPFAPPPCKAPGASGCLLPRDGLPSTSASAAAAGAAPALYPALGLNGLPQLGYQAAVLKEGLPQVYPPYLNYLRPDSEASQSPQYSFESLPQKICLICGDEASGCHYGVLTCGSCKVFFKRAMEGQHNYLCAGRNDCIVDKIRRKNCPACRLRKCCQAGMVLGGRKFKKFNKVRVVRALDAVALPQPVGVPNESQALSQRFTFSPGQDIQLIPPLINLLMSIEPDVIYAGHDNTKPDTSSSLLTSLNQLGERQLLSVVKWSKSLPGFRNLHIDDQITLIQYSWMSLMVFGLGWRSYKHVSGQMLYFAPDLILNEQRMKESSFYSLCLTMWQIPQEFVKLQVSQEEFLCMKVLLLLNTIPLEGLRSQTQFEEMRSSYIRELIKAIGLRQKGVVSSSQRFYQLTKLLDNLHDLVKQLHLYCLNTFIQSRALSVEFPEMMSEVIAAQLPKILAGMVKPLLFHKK
As to the kind of experiment: PRE-luciferase reporter, steroid receptor specificity. In kind it is cell-based. The settings on record: LNCaP cells transfected with PR, steroid 10 nM; 185-9-2 5 μg/ml, bicalutamide 10 μM. The procedure: Sequence similarities of amino acids in the AR with related human steroid receptors PR and glucocorticoid receptor (GR) are significant in some domains such as the DBD. The AR NTD shares less than 15% homology with the PR and GR, but these receptors interact with some of the same proteins (eg., SRC-1 and CBP). […] Cells were co-transfected with expression plasmids for full-length hGR, PRβ and the relative reporter (i.e., pGR-Luc or PRE-E1b-Luc reporters). Cells were then treated with ethanol vehicle, dexamethasone (GR), 4-pregnene-3,20 dione (progesterone) (PR) followed by measurement of luciferase activity. […] Some antiandrogens currently used in the clinic have progestational and glucocorticoidal activities. In adult males, the role of the PR activity is unclear.
On the technique in general: In a reporter assay the amount or activity of a reporter protein is the signal.

The subject of test [2] is PC3 xenografts. As to the kind of experiment: PC3 subcutaneous xenografts in non-castrated mice. Format: in vivo, NOD-SCID male mice. The settings on record: 20 mg/kg body weight every 5 days, listed as PNG01-185-017-9-2, 20 mg/kg. The procedure:
Six to eight-week old male athymic SCID mice were inoculated subcutaneously in the flank region via a 27-gauge needle with a 150 μl suspension of LNCaP or PC3 human prostate cancer cells (1×10^6 cells). The inoculations took place while the animal was under isofluorane anaesthesia. The tumor take rate is approximately 75%. Mice bearing tumors of 100 mm^3 were randomly assigned to treatment groups. Castration was performed as described below. Tumor volume (formula: L×W×H×0.5236) was measured in mice bearing LNCaP subcutaneous tumors that became palpable or visible and at least 40 mm^3. The animals were monitored daily and tumors were measured every 5 days.

Test [3] has as its target T2, AR (Homo sapiens, UniProt P10275, T878A).
T2 sequence (P10275 1-920 T878A): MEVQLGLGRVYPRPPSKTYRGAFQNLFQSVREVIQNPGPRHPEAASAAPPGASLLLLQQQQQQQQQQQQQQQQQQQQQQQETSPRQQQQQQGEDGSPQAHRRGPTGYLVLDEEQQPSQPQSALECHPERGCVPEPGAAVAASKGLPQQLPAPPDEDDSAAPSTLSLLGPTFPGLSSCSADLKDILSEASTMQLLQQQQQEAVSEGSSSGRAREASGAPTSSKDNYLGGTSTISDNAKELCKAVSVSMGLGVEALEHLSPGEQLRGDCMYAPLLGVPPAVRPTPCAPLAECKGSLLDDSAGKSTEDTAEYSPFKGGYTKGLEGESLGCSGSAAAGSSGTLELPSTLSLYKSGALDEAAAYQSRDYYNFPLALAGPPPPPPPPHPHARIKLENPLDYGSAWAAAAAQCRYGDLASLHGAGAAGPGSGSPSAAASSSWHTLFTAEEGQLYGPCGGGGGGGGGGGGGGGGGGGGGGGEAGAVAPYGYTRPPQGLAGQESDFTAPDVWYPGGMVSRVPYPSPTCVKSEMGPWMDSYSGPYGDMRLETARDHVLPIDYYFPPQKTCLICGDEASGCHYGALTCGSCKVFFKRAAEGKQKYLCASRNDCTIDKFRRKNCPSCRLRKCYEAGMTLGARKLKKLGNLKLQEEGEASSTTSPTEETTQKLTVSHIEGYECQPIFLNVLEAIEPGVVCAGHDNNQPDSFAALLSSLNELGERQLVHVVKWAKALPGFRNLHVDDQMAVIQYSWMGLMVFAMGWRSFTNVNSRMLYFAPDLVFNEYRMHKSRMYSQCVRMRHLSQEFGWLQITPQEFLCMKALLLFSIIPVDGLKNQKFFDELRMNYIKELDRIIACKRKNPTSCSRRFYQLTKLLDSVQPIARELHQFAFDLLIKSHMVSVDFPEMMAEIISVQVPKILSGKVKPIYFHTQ
As to the kind of experiment: Nuclear translocation of AR in LNCaP cells (fractionation, fluorescence microscopy). Format: cell-based. Details: LNCaP cells express endogenous AR and secrete prostate-specific antigen (PSA); endogenous in cells; host or cells: LNCaP.

The test system of test [4] is LNCaP cells. As to the kind of experiment: Androgen-dependent proliferation of LNCaP cells (BrdU incorporation). In kind it is cell-based, human. The following applies: R1881 0.1 nM, 4 days; 185-9-2 5 μg/ml, bicalutamide 10 μM. The procedure: The prostate gland is an androgen-dependent organ where androgens are the predominant mitogenic stimulus (Isaacs J T, Scott W W, Coffey D S., Prog Clin Biol Res. 1979; 33:133-44). This dependency on androgens provides the underlying rationale for treating prostate cancer with chemical or surgical castration. […] BrdU incorporation was measured 4 days later to indicate changes in proliferation in response to androgen (FIG. 12). […] Cancer Inst. Monogr. 49, 17-21).
A general note: Uptake of a labelled nucleoside into DNA is a usual measure of proliferation.

Entries after “also recorded” stand apart in the source; their conditions may differ. Structures can show the parent of a compound that is named as a salt.

For `CC(C)(c1ccc(OCC(O)CO)cc1)c1ccc(OCC(O)CCl)cc1` (centres unmarked) [185-9-2, BADGE.HCL.H2O], in test [1], the “PRE-luciferase activity in response to ligand” value was “did NOT inhibit; also recorded: does NOT inhibit”. Further, in test [2], the “PC3 xenograft tumor growth” value is given as “had a small effect on PC3 tumor growth but did not reduce tumor burden; also recorded: did not reduce tumors but did slightly slow the growth”. Further, in test [3] (compound on its own), the “nuclear translocation of the AR in the absence of androgen” value was “did not cause nuclear translocation of the AR”. In addition, the “nuclear translocation of AR protein in response to androgen” value in test [3] (pretreated 1 hr, 10 nM DHT) is given as “nor did it prevent nuclear translocation of AR protein”. Further, the “androgen-dependent proliferation of LNCaP cells (BrdU incorporation)” value in test [4] is recorded as “blocked androgen-dependent proliferation; also recorded: as effective as bicalutamide”.

(Values after patent US8686050B2, “Diglycidic ether derivative therapeutics and methods for their use” (British Columbia Cancer Agency Branch, priority 2008, dated 2014).)
